Source: the kinase profiling compilation of Christmann-Franck et al. (2016)

Assays:
Test in all cases: radiometric filter-binding kinase assay
EPHB4 (human) = EPHB4 (human) (UniProt P54760)
MARK3 (human) = MARK3 (human) (UniProt P27448)
MST4 (human) = MST4 (human) (UniProt Q9P289)
SRC (human) = SRC (human) (UniProt P12931)
CHEK2 (human) = CHEK2 (human) (UniProt O96017)
ERBB4 (human) = ERBB4 (human) (UniProt Q15303)
MARK4 (human) = MARK4 (human) (UniProt Q96L34)
MAPK1 (human) = MAPK1 (human) (UniProt P28482)
Sequence of MAPK1 (human) (P28482 whole entry, looked up): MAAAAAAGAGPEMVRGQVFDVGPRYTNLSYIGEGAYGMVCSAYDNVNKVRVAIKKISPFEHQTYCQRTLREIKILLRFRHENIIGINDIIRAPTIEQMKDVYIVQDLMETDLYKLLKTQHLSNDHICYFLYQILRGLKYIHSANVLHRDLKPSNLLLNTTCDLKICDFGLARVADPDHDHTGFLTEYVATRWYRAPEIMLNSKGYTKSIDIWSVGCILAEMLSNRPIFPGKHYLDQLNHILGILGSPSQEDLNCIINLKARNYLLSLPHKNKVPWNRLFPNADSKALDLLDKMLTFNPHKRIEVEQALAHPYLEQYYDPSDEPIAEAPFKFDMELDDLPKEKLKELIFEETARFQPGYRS

CLK2 (human) = CLK2 (human) (UniProt P49760)
Sequence of CLK2 (human) (P49760 whole entry, looked up): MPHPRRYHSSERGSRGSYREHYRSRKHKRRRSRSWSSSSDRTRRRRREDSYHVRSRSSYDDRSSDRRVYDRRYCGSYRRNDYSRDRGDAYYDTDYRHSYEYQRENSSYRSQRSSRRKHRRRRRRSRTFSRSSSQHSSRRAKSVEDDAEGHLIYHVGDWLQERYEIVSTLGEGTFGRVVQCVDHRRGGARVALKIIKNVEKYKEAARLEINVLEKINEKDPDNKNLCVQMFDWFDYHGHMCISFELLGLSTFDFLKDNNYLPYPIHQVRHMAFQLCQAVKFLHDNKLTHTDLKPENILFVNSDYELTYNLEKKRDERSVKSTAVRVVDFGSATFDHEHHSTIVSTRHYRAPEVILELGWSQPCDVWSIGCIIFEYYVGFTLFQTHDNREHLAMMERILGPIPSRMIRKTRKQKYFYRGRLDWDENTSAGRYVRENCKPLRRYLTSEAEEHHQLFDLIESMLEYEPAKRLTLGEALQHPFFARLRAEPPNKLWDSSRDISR

MAP3K1 (human) = MAP3K1 (human) (UniProt Q13233)
PAK6 (human) = PAK6 (human) (UniProt Q9NQU5)
Sequence of PAK6 (human) (Q9NQU5 whole entry, looked up): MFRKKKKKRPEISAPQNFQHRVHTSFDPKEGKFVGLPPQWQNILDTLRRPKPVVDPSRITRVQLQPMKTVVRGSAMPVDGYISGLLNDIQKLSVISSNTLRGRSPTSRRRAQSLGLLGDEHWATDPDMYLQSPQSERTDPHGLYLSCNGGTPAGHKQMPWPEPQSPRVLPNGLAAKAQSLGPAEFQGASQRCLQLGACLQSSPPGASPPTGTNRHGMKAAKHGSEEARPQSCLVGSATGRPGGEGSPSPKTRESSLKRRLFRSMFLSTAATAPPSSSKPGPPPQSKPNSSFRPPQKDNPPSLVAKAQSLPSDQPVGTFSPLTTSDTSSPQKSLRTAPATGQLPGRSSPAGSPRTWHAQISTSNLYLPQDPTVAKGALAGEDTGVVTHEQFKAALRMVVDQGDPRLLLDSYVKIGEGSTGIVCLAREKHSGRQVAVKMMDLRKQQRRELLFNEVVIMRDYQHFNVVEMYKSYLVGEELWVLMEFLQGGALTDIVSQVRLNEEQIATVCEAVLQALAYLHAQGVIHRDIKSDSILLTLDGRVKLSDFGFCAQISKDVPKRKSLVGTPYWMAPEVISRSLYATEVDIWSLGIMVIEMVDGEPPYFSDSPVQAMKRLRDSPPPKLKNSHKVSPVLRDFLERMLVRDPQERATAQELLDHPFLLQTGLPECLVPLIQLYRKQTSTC

HIPK3 (human) = HIPK3 (human) (UniProt Q9H422)
CHEK1 (human) = CHEK1 (human) (UniProt O14757)
Sequence of CHEK1 (human) (O14757 whole entry, looked up): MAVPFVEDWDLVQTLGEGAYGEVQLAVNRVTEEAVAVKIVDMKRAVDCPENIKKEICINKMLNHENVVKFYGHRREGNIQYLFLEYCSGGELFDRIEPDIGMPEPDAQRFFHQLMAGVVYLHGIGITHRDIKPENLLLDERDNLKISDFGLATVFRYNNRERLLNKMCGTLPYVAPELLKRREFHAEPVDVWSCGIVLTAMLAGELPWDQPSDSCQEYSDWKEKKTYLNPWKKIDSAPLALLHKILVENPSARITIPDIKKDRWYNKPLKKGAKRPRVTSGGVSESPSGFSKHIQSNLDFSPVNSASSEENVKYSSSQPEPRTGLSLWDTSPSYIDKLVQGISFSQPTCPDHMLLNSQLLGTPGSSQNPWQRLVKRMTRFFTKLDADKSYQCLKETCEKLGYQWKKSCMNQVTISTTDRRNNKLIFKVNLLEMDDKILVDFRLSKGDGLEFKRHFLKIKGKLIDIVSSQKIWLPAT

HIPK1 (human) = HIPK1 (human) (UniProt Q86Z02)
DAPK1 (human) = DAPK1 (human) (UniProt P53355)
EEF2K (human) = EEF2K (human) (UniProt O00418)
PRKCA (human) = PRKCA (human) (UniProt P17252)
RPS6KA1 KD1 KD2 (human) = RPS6KA1 KD1 KD2 (human) (UniProt Q15418)
Sequence of RPS6KA1 KD1 KD2 (human) (Q15418 whole entry, looked up): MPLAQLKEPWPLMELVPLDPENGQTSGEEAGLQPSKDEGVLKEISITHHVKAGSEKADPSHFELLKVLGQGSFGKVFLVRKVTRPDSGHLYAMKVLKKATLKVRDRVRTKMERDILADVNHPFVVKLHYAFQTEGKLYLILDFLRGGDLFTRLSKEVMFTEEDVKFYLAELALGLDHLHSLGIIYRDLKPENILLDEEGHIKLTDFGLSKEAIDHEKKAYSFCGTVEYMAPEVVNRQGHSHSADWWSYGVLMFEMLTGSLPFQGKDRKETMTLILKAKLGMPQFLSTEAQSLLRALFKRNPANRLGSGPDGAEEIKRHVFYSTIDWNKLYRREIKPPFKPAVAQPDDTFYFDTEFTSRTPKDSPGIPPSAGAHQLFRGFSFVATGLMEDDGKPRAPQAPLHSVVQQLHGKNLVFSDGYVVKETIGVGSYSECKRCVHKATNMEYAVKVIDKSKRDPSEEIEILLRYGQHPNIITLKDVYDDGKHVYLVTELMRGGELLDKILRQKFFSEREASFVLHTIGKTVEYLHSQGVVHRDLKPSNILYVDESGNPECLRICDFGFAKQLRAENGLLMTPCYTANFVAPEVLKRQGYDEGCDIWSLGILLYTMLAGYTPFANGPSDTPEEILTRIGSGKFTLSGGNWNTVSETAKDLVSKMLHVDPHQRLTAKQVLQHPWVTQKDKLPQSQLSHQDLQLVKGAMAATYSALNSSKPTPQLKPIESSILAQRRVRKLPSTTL

CDK2 CCNA2 (human) = CDK2 CCNA2 (human) (UniProt P20248+P24941)
PLK1 (human) = PLK1 (human) (UniProt P53350)
MAPK3 (human) = MAPK3 (human) (UniProt P27361)
TAOK1 (human) = TAOK1 (human) (UniProt Q7L7X3)
FLT1 (human) = FLT1 (human) (UniProt P17948)
MAP3K5 (human) = MAP3K5 (human) (UniProt Q99683)
GCK (human) = GCK (human) (UniProt Q12851)
AURKA (human) = AURKA (human) (UniProt O14965)
[1] = tested on: SGK1 (human), O00141 [S422D]
NTRK1 (human) = NTRK1 (human) (UniProt P04629)
RPS6KA5 KD1 KD2 (human) = RPS6KA5 KD1 KD2 (human) (UniProt O75582)
Sequence of RPS6KA5 KD1 KD2 (human) (O75582 whole entry, looked up): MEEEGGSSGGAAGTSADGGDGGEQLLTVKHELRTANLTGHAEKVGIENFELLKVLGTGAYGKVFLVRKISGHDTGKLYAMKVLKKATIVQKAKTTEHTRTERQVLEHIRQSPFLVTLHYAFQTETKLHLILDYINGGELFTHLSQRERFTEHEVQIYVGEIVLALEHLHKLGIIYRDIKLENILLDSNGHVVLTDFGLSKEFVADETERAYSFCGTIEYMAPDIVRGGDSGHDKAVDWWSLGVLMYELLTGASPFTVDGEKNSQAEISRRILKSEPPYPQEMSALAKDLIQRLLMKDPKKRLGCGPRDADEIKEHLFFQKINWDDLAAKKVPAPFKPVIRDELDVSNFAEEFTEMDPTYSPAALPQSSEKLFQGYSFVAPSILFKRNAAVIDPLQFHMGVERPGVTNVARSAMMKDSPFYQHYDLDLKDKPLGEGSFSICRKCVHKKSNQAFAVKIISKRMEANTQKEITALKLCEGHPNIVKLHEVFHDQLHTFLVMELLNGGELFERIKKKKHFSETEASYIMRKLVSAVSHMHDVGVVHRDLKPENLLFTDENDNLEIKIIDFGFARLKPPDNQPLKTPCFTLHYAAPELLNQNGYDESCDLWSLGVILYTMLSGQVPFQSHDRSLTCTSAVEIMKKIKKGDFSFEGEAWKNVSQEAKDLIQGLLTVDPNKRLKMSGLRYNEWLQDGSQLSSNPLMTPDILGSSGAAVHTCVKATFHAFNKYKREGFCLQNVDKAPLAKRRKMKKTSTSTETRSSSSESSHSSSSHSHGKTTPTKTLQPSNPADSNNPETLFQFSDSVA

STK3 (human) = STK3 (human) (UniProt Q13188)
NUAK1 (human) = NUAK1 (human) (UniProt O60285)
JAK2 JH1 JH2 (human) = JAK2 JH1 JH2 (human) (UniProt O60674)
PRKCZ (human) = PRKCZ (human) (UniProt Q05513)
RPS6KA3 KD1 KD2 (human) = RPS6KA3 KD1 KD2 (human) (UniProt P51812)
Sequence of RPS6KA3 KD1 KD2 (human) (P51812 whole entry, looked up): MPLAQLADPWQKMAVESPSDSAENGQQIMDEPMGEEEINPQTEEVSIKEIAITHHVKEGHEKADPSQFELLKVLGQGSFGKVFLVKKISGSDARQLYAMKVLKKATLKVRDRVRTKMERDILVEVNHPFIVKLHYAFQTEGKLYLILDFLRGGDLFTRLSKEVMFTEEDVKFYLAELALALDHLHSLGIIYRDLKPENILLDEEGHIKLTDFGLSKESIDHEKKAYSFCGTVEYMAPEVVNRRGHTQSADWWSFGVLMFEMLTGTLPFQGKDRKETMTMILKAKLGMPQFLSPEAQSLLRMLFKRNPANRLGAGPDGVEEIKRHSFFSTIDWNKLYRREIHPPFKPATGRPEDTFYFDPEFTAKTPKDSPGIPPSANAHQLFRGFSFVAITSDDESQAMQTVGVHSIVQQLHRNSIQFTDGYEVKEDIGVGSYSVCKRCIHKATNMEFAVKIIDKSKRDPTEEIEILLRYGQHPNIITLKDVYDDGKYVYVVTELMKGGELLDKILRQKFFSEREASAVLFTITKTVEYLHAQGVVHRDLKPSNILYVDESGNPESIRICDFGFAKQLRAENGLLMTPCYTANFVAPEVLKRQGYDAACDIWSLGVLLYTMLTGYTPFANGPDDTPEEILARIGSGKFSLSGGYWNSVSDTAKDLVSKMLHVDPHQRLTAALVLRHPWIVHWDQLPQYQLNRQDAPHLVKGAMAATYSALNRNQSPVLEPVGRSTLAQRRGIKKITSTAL

BRSK2 (human) = BRSK2 (human) (UniProt Q8IWQ3)

Sequence of MARK3 (human) (P27448 whole entry, looked up): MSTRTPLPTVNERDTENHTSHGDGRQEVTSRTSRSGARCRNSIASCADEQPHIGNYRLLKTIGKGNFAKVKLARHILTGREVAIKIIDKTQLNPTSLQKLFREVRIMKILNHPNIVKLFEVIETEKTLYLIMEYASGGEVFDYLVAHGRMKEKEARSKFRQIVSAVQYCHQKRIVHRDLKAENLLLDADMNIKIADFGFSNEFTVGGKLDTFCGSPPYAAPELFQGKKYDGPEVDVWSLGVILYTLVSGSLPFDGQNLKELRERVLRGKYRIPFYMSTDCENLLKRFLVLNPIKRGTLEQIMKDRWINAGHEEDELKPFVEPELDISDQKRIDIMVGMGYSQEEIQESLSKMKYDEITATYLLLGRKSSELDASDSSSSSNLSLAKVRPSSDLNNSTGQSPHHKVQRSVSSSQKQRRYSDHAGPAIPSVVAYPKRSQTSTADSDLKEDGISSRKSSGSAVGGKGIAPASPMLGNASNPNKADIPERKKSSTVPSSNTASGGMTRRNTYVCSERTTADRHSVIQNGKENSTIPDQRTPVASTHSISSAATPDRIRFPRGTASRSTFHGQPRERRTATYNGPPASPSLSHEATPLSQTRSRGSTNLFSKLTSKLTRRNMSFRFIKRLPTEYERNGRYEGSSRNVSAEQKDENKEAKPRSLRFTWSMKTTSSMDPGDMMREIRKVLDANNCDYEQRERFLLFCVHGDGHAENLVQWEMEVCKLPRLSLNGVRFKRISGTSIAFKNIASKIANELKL

CCCC(CCC)C(=O)O
residual activity (EPHB4 (human); compound 10.0 µM): 98%
residual activity (EPHB4 (human); compound 50.0 µM): 97%
residual activity (MARK3 (human); compound 1.0 µM): 100%
residual activity (MARK3 (human); compound 10.0 µM): 108%
residual activity (MST4 (human); compound 10.0 µM): 102%
residual activity (MST4 (human); compound 50.0 µM): 100%
residual activity (SRC (human); compound 1.0 µM): 100%
residual activity (SRC (human); compound 10.0 µM): 87%
residual activity (SRC (human); compound 50.0 µM): 94%
residual activity (CHEK2 (human); compound 1.0 µM): 83%
residual activity (CHEK2 (human); compound 10.0 µM): 97%
residual activity (CHEK2 (human); compound 50.0 µM): 95%
residual activity (ERBB4 (human); compound 10.0 µM): 80%
residual activity (ERBB4 (human); compound 50.0 µM): 76%
residual activity (MARK4 (human); compound 10.0 µM): 106%
residual activity (MARK4 (human); compound 50.0 µM): 106%
residual activity (MAPK1 (human); compound 1.0 µM): 98%
residual activity (MAPK1 (human); compound 10.0 µM): 77%
residual activity (MAPK1 (human); compound 50.0 µM): 80%
residual activity (CLK2 (human); compound 10.0 µM): 90%
residual activity (CLK2 (human); compound 50.0 µM): 86%
residual activity (MAP3K1 (human); compound 10.0 µM): 107%
residual activity (MAP3K1 (human); compound 50.0 µM): 96%
residual activity (PAK6 (human); compound 10.0 µM): 95%
residual activity (PAK6 (human); compound 50.0 µM): 104%
residual activity (HIPK3 (human); compound 10.0 µM): 89%
residual activity (HIPK3 (human); compound 50.0 µM): 97%
residual activity (CHEK1 (human); compound 1.0 µM): 82%
residual activity (CHEK1 (human); compound 10.0 µM): 95%
residual activity (CHEK1 (human); compound 50.0 µM): 95%
residual activity (HIPK1 (human); compound 10.0 µM): 84%
residual activity (HIPK1 (human); compound 50.0 µM): 94%
residual activity (DAPK1 (human); compound 10.0 µM): 97%
residual activity (DAPK1 (human); compound 50.0 µM): 94%
residual activity (EEF2K (human); compound 1.0 µM): 97%
residual activity (EEF2K (human); compound 10.0 µM): 61%
residual activity (EEF2K (human); compound 50.0 µM): 71%
residual activity (PRKCA (human); compound 1.0 µM): 88%
residual activity (PRKCA (human); compound 10.0 µM): 91%
residual activity (PRKCA (human); compound 50.0 µM): 95%
residual activity (RPS6KA1 KD1 KD2 (human); compound 1.0 µM): 99%
residual activity (RPS6KA1 KD1 KD2 (human); compound 10.0 µM): 100%
residual activity (RPS6KA1 KD1 KD2 (human); compound 50.0 µM): 96%
residual activity (CDK2 CCNA2 (human); compound 1.0 µM): 90%
residual activity (CDK2 CCNA2 (human); compound 10.0 µM): 76%
residual activity (CDK2 CCNA2 (human); compound 50.0 µM): 80%
residual activity (PLK1 (human); compound 1.0 µM): 97%
residual activity (PLK1 (human); compound 10.0 µM): 95%
residual activity (PLK1 (human); compound 50.0 µM): 93%
residual activity (MAPK3 (human); compound 10.0 µM): 88%
residual activity (MAPK3 (human); compound 50.0 µM): 101%
residual activity (TAOK1 (human); compound 10.0 µM): 93%
residual activity (TAOK1 (human); compound 50.0 µM): 89%
residual activity (FLT1 (human); compound 10.0 µM): 84%
residual activity (FLT1 (human); compound 50.0 µM): 89%
residual activity (MAP3K5 (human); compound 10.0 µM): 92%
residual activity (MAP3K5 (human); compound 50.0 µM): 83%
residual activity (GCK (human); compound 10.0 µM): 87%
residual activity (GCK (human); compound 50.0 µM): 98%
residual activity (AURKA (human); compound 10.0 µM): 107%
residual activity (AURKA (human); compound 50.0 µM): 111%
residual activity ([1]; compound 1.0 µM): 89%
residual activity ([1]; compound 10.0 µM): 98%
residual activity (NTRK1 (human); compound 10.0 µM): 91%
residual activity (NTRK1 (human); compound 50.0 µM): 89%
residual activity (RPS6KA5 KD1 KD2 (human); compound 1.0 µM): 94%
residual activity (RPS6KA5 KD1 KD2 (human); compound 10.0 µM): 86%
residual activity (RPS6KA5 KD1 KD2 (human); compound 50.0 µM): 91%
residual activity (STK3 (human); compound 1.0 µM): 90%
residual activity (STK3 (human); compound 10.0 µM): 88%
residual activity (STK3 (human); compound 50.0 µM): 87%
residual activity (NUAK1 (human); compound 10.0 µM): 88%
residual activity (NUAK1 (human); compound 50.0 µM): 86%
residual activity (JAK2 JH1 JH2 (human); compound 10.0 µM): 80%
residual activity (JAK2 JH1 JH2 (human); compound 50.0 µM): 86%
residual activity (PRKCZ (human); compound 10.0 µM): 101%
residual activity (PRKCZ (human); compound 50.0 µM): 93%
residual activity (RPS6KA3 KD1 KD2 (human); compound 1.0 µM): 94%
residual activity (RPS6KA3 KD1 KD2 (human); compound 10.0 µM): 94%
residual activity (RPS6KA3 KD1 KD2 (human); compound 50.0 µM): 93%

CC(C)(C#N)c1ccc(N2C(=O)OCc3cnc4ccc(-c5cnc6ccccc6c5)cc4c32)cc1
residual activity (EPHB4 (human); compound 1.0 µM): 102%
residual activity (EPHB4 (human); compound 10.0 µM): 96%
residual activity (MARK3 (human); compound 1.0 µM): 93%
residual activity (MARK3 (human); compound 10.0 µM): 102%
residual activity (MST4 (human); compound 1.0 µM): 93%
residual activity (MST4 (human); compound 10.0 µM): 83%
residual activity (SRC (human); compound 1.0 µM): 83%
residual activity (SRC (human); compound 10.0 µM): 130%
residual activity (CHEK2 (human); compound 1.0 µM): 95%
residual activity (CHEK2 (human); compound 10.0 µM): 94%
residual activity (ERBB4 (human); compound 1.0 µM): 110%
residual activity (ERBB4 (human); compound 10.0 µM): 97%
residual activity (MARK4 (human); compound 1.0 µM): 100%
residual activity (MARK4 (human); compound 10.0 µM): 86%
residual activity (MAPK1 (human); compound 1.0 µM): 83%
residual activity (MAPK1 (human); compound 10.0 µM): 95%
residual activity (CLK2 (human); compound 1.0 µM): 75%
residual activity (CLK2 (human); compound 10.0 µM): 91%
residual activity (MAP3K1 (human); compound 1.0 µM): 69%
residual activity (MAP3K1 (human); compound 10.0 µM): 85%
residual activity (PAK6 (human); compound 1.0 µM): 98%
residual activity (PAK6 (human); compound 10.0 µM): 110%
residual activity (HIPK3 (human); compound 1.0 µM): 96%
residual activity (HIPK3 (human); compound 10.0 µM): 94%
residual activity (CHEK1 (human); compound 1.0 µM): 81%
residual activity (CHEK1 (human); compound 10.0 µM): 100%
residual activity (HIPK1 (human); compound 1.0 µM): 94%
residual activity (HIPK1 (human); compound 10.0 µM): 97%
residual activity (DAPK1 (human); compound 1.0 µM): 84%
residual activity (DAPK1 (human); compound 10.0 µM): 88%
residual activity (EEF2K (human); compound 1.0 µM): 99%
residual activity (EEF2K (human); compound 10.0 µM): 109%
residual activity (PRKCA (human); compound 1.0 µM): 101%
residual activity (PRKCA (human); compound 10.0 µM): 94%
residual activity (RPS6KA1 KD1 KD2 (human); compound 1.0 µM): 96%
residual activity (RPS6KA1 KD1 KD2 (human); compound 10.0 µM): 73%
residual activity (CDK2 CCNA2 (human); compound 1.0 µM): 90%
residual activity (CDK2 CCNA2 (human); compound 10.0 µM): 85%
residual activity (PLK1 (human); compound 1.0 µM): 93%
residual activity (PLK1 (human); compound 10.0 µM): 87%
residual activity (MAPK3 (human); compound 1.0 µM): 85%
residual activity (MAPK3 (human); compound 10.0 µM): 83%
residual activity (TAOK1 (human); compound 1.0 µM): 91%
residual activity (TAOK1 (human); compound 10.0 µM): 94%
residual activity (FLT1 (human); compound 1.0 µM): 87%
residual activity (FLT1 (human); compound 10.0 µM): 107%
residual activity (MAP3K5 (human); compound 1.0 µM): 117%
residual activity (MAP3K5 (human); compound 10.0 µM): 111%
residual activity (GCK (human); compound 1.0 µM): 22%
residual activity (GCK (human); compound 10.0 µM): 11%
residual activity (AURKA (human); compound 1.0 µM): 101%
residual activity (AURKA (human); compound 10.0 µM): 108%
residual activity ([1]; compound 1.0 µM): 96%
residual activity ([1]; compound 10.0 µM): 82%
residual activity (NTRK1 (human); compound 1.0 µM): 50%
residual activity (RPS6KA5 KD1 KD2 (human); compound 1.0 µM): 74%
residual activity (RPS6KA5 KD1 KD2 (human); compound 10.0 µM): 53%
residual activity (STK3 (human); compound 1.0 µM): 64%
residual activity (STK3 (human); compound 10.0 µM): 49%
residual activity (NUAK1 (human); compound 1.0 µM): 32%
residual activity (NUAK1 (human); compound 10.0 µM): 16%
residual activity (JAK2 JH1 JH2 (human); compound 1.0 µM): 26%
residual activity (JAK2 JH1 JH2 (human); compound 10.0 µM): 31%
residual activity (BRSK2 (human); compound 1.0 µM): 89%
residual activity (BRSK2 (human); compound 10.0 µM): 100%
residual activity (RPS6KA3 KD1 KD2 (human); compound 1.0 µM): 89%
residual activity (RPS6KA3 KD1 KD2 (human); compound 10.0 µM): 100%
